Values joined by “and” are separate entries in the source; they are usually repeats but may differ in a detail not shown here. Equal entries are not always repeated.
Columns and labels:
OATP1B1 [1] = molecular target: T1, OATP1B1 (Homo sapiens, UniProt Q9Y6L6); conditions: 10 μM 8-FcA, 20 minutes
[2] = stated in the introduction without data or own reference; cited from earlier work
OATP2B1 = molecular target: T2, OATP2B1 (Homo sapiens, UniProt O94956); assay: Substrate uptake in CHO cells stably expressing OATP2B1; assay type: cell-based; conditions: 2 μM substrate, five minute accumulation, CHOvector = 1
T2 sequence (O94956 1-709): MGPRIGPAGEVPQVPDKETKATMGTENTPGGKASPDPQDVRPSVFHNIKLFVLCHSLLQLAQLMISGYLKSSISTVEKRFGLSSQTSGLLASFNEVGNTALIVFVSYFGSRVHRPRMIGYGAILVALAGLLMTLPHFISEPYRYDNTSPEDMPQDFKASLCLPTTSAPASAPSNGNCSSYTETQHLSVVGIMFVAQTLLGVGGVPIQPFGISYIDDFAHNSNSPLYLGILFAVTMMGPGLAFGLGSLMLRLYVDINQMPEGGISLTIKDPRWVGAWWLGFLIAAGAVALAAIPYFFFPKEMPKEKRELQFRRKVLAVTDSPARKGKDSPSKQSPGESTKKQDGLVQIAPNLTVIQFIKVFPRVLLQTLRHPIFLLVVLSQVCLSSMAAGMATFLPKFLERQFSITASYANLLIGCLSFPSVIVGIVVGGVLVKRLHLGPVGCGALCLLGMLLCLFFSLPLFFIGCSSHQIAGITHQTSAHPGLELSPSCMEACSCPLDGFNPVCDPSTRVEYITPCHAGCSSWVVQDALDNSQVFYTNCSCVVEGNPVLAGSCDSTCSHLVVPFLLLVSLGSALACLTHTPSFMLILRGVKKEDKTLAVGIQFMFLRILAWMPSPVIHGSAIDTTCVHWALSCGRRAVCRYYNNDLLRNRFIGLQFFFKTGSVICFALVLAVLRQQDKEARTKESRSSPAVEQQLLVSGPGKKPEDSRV

OCT2 = molecular target: T3, OCT2 (Homo sapiens, UniProt O15244); assay: Cellular accumulation in CHO cells transiently transfected with OCT2; assay type: cell-based; conditions: 10 μM 8-FcA, 20 minutes
T3 sequence (O15244 1-555): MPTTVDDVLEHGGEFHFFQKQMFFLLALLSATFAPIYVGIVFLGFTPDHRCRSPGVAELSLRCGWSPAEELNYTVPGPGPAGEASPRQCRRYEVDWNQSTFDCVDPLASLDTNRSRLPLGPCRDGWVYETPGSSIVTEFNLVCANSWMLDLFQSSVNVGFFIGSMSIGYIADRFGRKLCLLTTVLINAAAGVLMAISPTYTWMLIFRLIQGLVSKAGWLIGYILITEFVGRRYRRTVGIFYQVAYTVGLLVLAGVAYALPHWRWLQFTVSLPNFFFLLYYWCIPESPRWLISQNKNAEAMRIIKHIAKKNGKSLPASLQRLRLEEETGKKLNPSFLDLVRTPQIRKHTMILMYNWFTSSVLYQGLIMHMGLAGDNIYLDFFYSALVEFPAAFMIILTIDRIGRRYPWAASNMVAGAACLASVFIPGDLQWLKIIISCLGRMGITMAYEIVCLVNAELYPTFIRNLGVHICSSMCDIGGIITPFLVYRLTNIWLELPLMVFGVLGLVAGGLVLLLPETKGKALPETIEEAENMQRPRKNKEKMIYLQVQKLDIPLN

OATP1B3 [3] = molecular target: T4, OATP1B3 (Homo sapiens, UniProt Q9NPD5); assay: Cellular accumulation in CHO cells transiently transfected with OATP1B3; conditions: 10 μM 8-FcA, 20 minutes
T4 sequence (Q9NPD5 1-702): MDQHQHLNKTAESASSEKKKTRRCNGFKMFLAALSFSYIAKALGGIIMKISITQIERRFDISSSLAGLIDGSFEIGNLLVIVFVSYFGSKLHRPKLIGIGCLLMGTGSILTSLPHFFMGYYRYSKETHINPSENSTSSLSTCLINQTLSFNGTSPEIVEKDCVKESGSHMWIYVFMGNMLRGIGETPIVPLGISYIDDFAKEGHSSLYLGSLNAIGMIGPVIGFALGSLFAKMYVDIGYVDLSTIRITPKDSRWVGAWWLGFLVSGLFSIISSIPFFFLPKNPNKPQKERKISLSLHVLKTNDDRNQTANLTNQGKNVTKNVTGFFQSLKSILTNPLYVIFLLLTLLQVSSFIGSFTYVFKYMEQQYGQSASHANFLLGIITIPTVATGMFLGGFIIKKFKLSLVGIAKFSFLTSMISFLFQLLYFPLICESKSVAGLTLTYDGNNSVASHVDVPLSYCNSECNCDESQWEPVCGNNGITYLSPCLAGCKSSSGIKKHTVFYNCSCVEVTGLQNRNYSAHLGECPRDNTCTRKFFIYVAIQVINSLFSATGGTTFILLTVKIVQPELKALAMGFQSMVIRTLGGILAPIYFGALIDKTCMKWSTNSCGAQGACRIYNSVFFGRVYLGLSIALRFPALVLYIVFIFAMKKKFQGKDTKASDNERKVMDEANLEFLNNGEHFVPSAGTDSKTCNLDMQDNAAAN

OATP1B3 [4] = molecular target: T4, OATP1B3; assay: Substrate uptake and transport kinetics in CHO cells stably expressing OATP1B3
OAT1 = molecular target: T5, OAT1 (Homo sapiens, UniProt Q4U2R8); assay: Cellular accumulation in CHO cells transiently transfected with OAT1; assay type: cell-based; conditions: 10 μM 8-FcA, 20 minutes
T5 sequence (Q4U2R8 1-563): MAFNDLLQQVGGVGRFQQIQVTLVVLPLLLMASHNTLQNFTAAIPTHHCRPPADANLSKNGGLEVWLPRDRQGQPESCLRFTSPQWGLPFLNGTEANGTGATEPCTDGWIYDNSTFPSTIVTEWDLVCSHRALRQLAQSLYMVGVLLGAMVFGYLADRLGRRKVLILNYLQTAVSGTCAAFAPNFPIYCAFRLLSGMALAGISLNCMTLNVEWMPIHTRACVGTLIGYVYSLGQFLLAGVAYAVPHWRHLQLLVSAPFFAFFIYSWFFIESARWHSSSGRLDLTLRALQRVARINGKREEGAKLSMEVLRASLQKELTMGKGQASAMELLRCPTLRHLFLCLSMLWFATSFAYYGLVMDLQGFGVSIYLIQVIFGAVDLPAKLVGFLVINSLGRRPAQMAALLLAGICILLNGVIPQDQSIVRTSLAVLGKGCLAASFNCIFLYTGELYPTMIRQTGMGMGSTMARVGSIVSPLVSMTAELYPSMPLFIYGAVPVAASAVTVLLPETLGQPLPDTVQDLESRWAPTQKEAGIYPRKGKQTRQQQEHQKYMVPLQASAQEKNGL

OATP1B1 [5] = molecular target: T1, OATP1B1; assay: Substrate uptake and transport kinetics in CHO cells stably expressing OATP1B1
[6] = 2 μM substrate, five minute accumulation, CHOvector = 1
[7] = 8-FcA 0.25-25 μM, 10 min uptake, CHOvector subtracted, mean ± standard error

T1 sequence (Q9Y6L6 whole entry): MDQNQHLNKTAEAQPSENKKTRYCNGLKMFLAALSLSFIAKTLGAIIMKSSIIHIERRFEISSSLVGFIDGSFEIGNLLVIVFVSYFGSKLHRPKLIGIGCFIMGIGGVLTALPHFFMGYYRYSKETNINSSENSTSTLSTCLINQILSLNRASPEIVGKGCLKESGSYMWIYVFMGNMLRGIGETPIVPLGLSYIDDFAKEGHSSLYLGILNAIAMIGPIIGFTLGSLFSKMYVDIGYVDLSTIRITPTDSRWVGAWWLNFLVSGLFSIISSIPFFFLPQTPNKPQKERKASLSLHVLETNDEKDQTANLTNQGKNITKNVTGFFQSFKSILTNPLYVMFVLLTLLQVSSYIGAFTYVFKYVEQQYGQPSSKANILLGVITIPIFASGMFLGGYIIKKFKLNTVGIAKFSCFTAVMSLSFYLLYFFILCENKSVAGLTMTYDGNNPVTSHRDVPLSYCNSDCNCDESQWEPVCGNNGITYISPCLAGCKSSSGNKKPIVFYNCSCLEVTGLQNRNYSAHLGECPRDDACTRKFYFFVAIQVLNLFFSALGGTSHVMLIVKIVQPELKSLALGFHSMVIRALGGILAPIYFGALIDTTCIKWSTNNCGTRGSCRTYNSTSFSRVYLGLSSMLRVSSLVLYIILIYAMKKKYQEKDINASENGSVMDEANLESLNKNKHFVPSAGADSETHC

**Q.** For `Nc1ncnc2c1nc(SCCNC(=S)Nc1ccc(-c3c4ccc(=O)cc-4oc4cc(O)ccc34)c(C(=O)O)c1)n2[C@@H]1O[C@@H]2COP(=O)(O)O[C@H]2[C@H]1O` [8-FcA, 8-(2-[Fluoresceinyl]aminoethylthio) adenosine-3', 5'-cyclic monophosphate], which “cellular accumulation by fluorescence microscopy, OATP1B1” value (OATP1B1 [1]) is on record?
**A.** readily accumulated

**Q.** And the aqueous solubility [2]?
**A.** very high aqueous solubility

**Q.** And the “cellular accumulation relative to control, CHOOATP2B1” value (OATP2B1)?
**A.** not statistically different from that of CHOvector

**Q.** What about the “cellular accumulation by fluorescence microscopy, OCT2” value (OCT2) of the same compound?
**A.** negative

**Q.** And the “cellular accumulation by fluorescence microscopy, OATP1B3” value (OATP1B3 [3])?
**A.** readily accumulated

**Q.** And the “transport efficiency, Vmax/Km (OATP1B3)” value (OATP1B3 [4])?
**A.** 0.183 μL/min/cm^2

**Q.** What about the “cellular accumulation relative to control, CHOOATP1B3” value (OATP1B3 [4]; [6]) of the same compound?
**A.** robust accumulation

**Q.** And the “Vmax of OATP1B3-mediated transport” value (OATP1B3 [4]; [7])?
**A.** 0.33 pmol/min/cm^2 and 0.33±0.02 pmol/min/cm^2

**Q.** And the “cellular accumulation by fluorescence microscopy, OAT1” value (OAT1)?
**A.** modest accumulation

**Q.** What about the “transport efficiency, Vmax/Km (OATP1B1)” value (OATP1B1 [5]) of the same compound?
**A.** 0.069 μL/min/cm^2

**Q.** What about the “cellular accumulation relative to control, CHOOATP1B1” value (OATP1B1 [5]; [6]) of the same compound?
**A.** robust accumulation

**Q.** What about the “Vmax of OATP1B1-mediated transport” value (OATP1B1 [5]; [7]) of the same compound?
**A.** 0.20 pmol/min/cm^2 and 0.20±0.01 pmol/min/cm^2
